Laboratory results: a melting point compilation (Tetko et al.; mined from patent text by program, amines drawn as free bases though some values may be those of a salt)

Compound	melting point [°C]
COCCOc1cc(C(O)C#Cc2ccc(C(=O)O)cc2)cc2c1C(C)(C)CCC2(C)C (centres undefined)	150
CN1CCN(c2ccc(-c3[nH]nc4c3C(=O)c3c(NC(=O)NNC(=O)c5cccnc5)cccc3-4)cc2)CC1	238
CCn1c(=O)c(C)cc2cnc(Nc3ccc(N4CCN(C)CC4)cc3)nc21	198 to 200
O=[N+]([O-])c1ccc(/C=C/c2ccc(Cl)c(C(F)(F)F)c2)cc1	173 to 174
CCOCc1nc2c(N)nc(C)c(C)c2n1N(C)C	170 to 171
COc1cnc(CSc2nc3cc(OC(F)(F)C(F)F)ccc3[nH]2)cc1OC	125 to 127
O=C(Nc1ccc(C(F)(F)F)cc1)Nc1cccc(Oc2ccccc2)c1	178 to 181
CCCc1c(OCCCOc2ccc3c(c2)CCC(CC(=O)O)C3=O)ccc(C(C)=O)c1O (centres undefined)	123 to 125
COc1cc2c3ccc(OC)c(OC)c3n(Cc3ccc(C#N)cc3)c2cc1OC	147 to 148
CC1C(=C[N+](=O)[O-])Nc2ccc(Cl)cc2C(c2ccccc2F)=[N+]1[O-] (centres undefined)	198 to 200
CC(C)(C)CN1C(=O)CC(=O)N(c2ccccc2Cl)c2cc(Cl)ccc21	245 to 246
C[C@@H](NC(=O)c1c[nH]c2ncc(-c3nn(C)c4cccnc34)nc12)C(=O)N1CC(C#N)C1	194 to 198
CCOP(=O)(/C=C/c1cn(-c2ccccc2)nc1OCc1ccc(OCc2coc(-c3ccco3)n2)c(OC)c1)OCC	96 to 97
O=C(NCC(=O)N1c2ccccc2N(Cc2ccccc2)C(=O)[C@H]2CCC[C@H]21)c1ccc(C(F)(F)F)cc1 (relative stereo)	218 to 220
CC(=O)OC1CSC(Oc2ccc(-c3cncnc3)nc2)C(OC(C)=O)C1OC(C)=O (centres undefined)	215
CC(=O)n1cc(C2=CCN(C)CC2)c2cc(F)ccc21	126 to 128
O=C(CCCCOc1ccc(O)cc1)C(F)(F)F	63 to 64
O=C(Nc1ccc(Cl)c(C(F)(F)F)c1)Nc1ccc2ncsc2c1	225 to 228
CC(=CC#Cc1ccccc1)C(=O)NCCCCCC(=O)NO	135 to 137

Compound	melting point [°C]
CC(=O)OCC(C(OC(C)=O)c1cccc(F)c1)[N+](=O)[O-] (centres undefined)	94
Oc1ccc(Nc2ccncc2)cc1	246 to 248
O=C(NCCCCn1cncn1)c1ccco1	78 to 79
CC(C)(C)OC(=O)N1OC2C=CC1C2 (centres undefined)	52 to 53
CCOc1ncc(Cl)cc1C1OC(=O)NC1=O (centres undefined)	119 to 124
ClCc1nnc2n1-c1sc(Cl)cc1C(c1ccccc1Cl)=NC2	101 to 103
COc1ccc(S(=O)(=O)C(CCCCOc2ccccc2)(Cc2cccnc2)C(=O)O)cc1 (centres undefined)	148 to 151
CC1CC(C)CN(c2nccc(Oc3ccc(NC(=O)c4cc(F)cc(N5CCOCC5)c4)c4ccccc34)n2)C1 (centres undefined)	102 to 104
Cc1nc(N2CCN(Cc3nc(C)n(-c4ccccc4)n3)C2=O)sc1C(=O)NCc1ccccc1	139 to 141
C[C@@H]1CN(c2nccc(Oc3ccc(NC(=O)c4cc(F)cc(N5CCCCC5)c4)c4ccccc34)n2)C[C@H](C)O1	174 to 176
C=CCc1ccc(C(=O)CCC(=O)OC)cc1O	90 to 92.5
O=C(OCCCI)C(=C1NCCCS1)[N+](=O)[O-]	58 to 60
Cc1ccnc(P(=O)(O)O)c1	273
CN(c1ncnc2c1ncn2Cc1ccccc1F)n1cccc1	147 to 149
CC1(C)CCC(C)(C)c2cc(-c3ccc4cc(O)ccc4c3)ccc21	104
CC(C)S(=O)(=O)c1ccc2c(c1)nc(CC(C)(C)C)n2CC1(O)CCOCC1	189
CCCNCCc1cccc(NS(=O)(=O)c2cccc(Cl)c2)c1	145 to 148
Cc1oc(-c2ccc(Cl)cc2)nc1CC(=O)O	160 to 161
CN(c1ccc(OC(F)(F)F)cc1)C1CCN(C[C@@]2(C)Cn3cc([N+](=O)[O-])nc3O2)CC1	133 to 134

Compound	melting point [°C]
CCC(Oc1ccc(Cl)cc1)C(=O)OC1CC(O)C=C2C=CC(C)C(CCC3CC(O)CC(=O)O3)C21 (mixture of isomers)	140 to 142
CCCOc1ccc(S(=O)(=O)N2CCN(CC)CC2)cc1-c1nc2cc(N)c([N+](=O)[O-])cc2c(=O)[nH]1	248 to 250
Cc1ccc2c(c1C)OC(C(=O)O)C2 (centres undefined)	182
Cc1cc(Nc2c(C#N)cnc3cc(Br)ccc23)ccc1OCc1ccccn1	238 to 241
COc1ccc2c(c1)C=C(C(O)C(F)(F)F)CC2 (centres undefined)	66 to 68
CC(=O)OCC1OC(OC2C(COC(C)=O)OC(Oc3ccc([N+](=O)[O-])cc3)C(OC(C)=O)C2OC(C)=O)C(OC(C)=O)C(OC(C)=O)C1OC(C)=O (centres undefined)	165 to 170
CSC(=S)N1CCN(CC2=C(C)C(=O)C(C)=C(C)C2=O)CC1	133 to 135
CN1CC(C#N)C(=O)c2cc3cc(F)c(F)cc3nc21 (centres undefined)	144
CCOc1cc(-n2nc(C)c(Cl)c2C)c(F)cc1Cl	106 to 108
CCCCCCc1c(Cl)nc(NC=O)nc1Cl	80 to 81
O=c1c2cc(F)c(N3CCCC3)cc2n(CCF)c(=O)n1O	228 to 230
CCCCC(=O)c1c(CN2CCOCC2)nc2cc(OC)c(OC)cc2c1-c1ccc(OC)c(OC)c1	137 to 138
CCN(C#N)C(=O)CCCCC(=O)N(C#N)CC	38.7 to 40.1
COc1ccc2cc(Nc3ccc(OCc4ccccc4)cc3)ccc2c1	155 to 157
Brc1ccc2c(c1)C1(c3ccccc3-c3ccccc31)c1ccccc1-2	181 to 183
NS(=O)(=O)c1ccc(-c2oc3ccc(F)cc3c(=O)c2-c2ccccc2)cc1	228 to 229
COc1ccc(C2=NNC(=O)[C@H]3CCCC[C@@H]23)cc1OC1CCCC1 (relative stereo)	175 to 176
O=S(=O)(/C=C/c1ccc(F)cc1)Nc1ccc(Cl)cc1	126 to 128
OC(CN1CCC(c2noc3cc(F)ccc23)CC1)CN1CCCc2ccccc21 (centres undefined)	170 to 171

Further lines, results first:

melting point [°C]	Compound
113 to 115	Cc1cccc(C)c1N(CCCCCCc1cccnc1)C(=O)C(C)N1C(=O)c2ccccc2C1=O (centres undefined)
104 to 105	O=C(OCC(CO)(CO)COC(=O)c1ccccc1)c1ccccc1
223 to 224	N#CCCNC(=O)c1n[nH]cc1NC(=O)c1ccccn1
111 to 113	Cc1ccc2nc(-c3ccccc3)nc(Cl)c2c1
140 to 141	CCOC(=O)c1cc2n(c1)CNc1ccccc1-2
185 to 187	COc1ccccc1C1(O[Si](C)(C)C)C(=O)Nc2ccc(Cl)cc21 (centres undefined)
214 to 215	O=C(O)COc1cc2onc(-c3ccccc3F)c2cc1Cl
212 to 215	O=C1Nc2cccc(I)c2C(=O)N2CCC[C@@H]12
134 to 136	C#CCn1c(-c2ccccc2)nc(C#C)c(CC)c1=O
180 to 183	N=C(Nc1ccc2[nH]cc(C3CCN(C(=O)c4ccccc4)CC3)c2c1)c1cccs1
187 to 189	Cc1ccn2nc(S(=O)(=O)N(C(=O)c3ccccc3)c3c(Cl)cccc3Cl)nc2n1
207 to 210	COc1ccc(Cl)cc1C1(O)C(=O)Nc2cc(C(F)(F)F)ccc21 (centres undefined)
114 to 115	CCOC(=O)c1cncn1-c1ccc(F)cc1
129 to 131	CCOC(=O)c1ccc(OCCC2CCc3c(c(OC)c(OC)c(OC)c3OC)CC2)cc1
122 to 124	CCOC(=O)N1CCC(=NO)c2cc(F)ccc21
160 to 164	CCOC(=O)c1c(O)c2cccc3c2n(c1=O)CCO3
184 to 188	O=C(CC(=O)C(CF)CF)c1ccc(OCc2ccccc2)cc1
248 to 252	CN(C)c1nccc2c1nnn2Cc1ccccc1F
195 to 197	COc1ccc2[nH]nc(N3CCN(CCCn4c(=O)[nH]c5ccccc54)CC3)c2c1
224 to 227	CN1C(=O)CN(c2ccc(OCc3ccccc3)cc2)NC1=O
169 to 171	OCc1c(CO)c(-c2ccccc2)n2c1Cc1ccccc1-2

melting point [°C]	Compound
141 to 142	O=C1Cc2cc3c(cc2CCN1Cc1ccccc1)OCO3
182 to 183	Cc1c(NC(=O)CC(C)(C)C)cc2c(c1C)OC(C)(C)C2c1ccccc1 (centres undefined)
95 to 96	CCCC(=O)c1cnc2c(C(O)CN(C)C)cccc2c1Nc1ccccc1C (centres undefined)
235 to 240	Cn1cc(O)c(=O)c2ccccc21
150 to 153	CCOc1cc(=O)oc2cc(CBr)ccc12
180	CC(C)CNc1nc(-c2ccccc2)c(Cl)n2c(-c3ccc(C(=O)NC4CC4)cc3)cnc12
177 to 178	COc1ccc(S(=O)(=O)N2CCc3cccc(-c4ccco4)c32)cc1
40 to 40.5	CCCCCCCCCCOC(=O)c1ccc(O)c(OC)c1
108 to 110	COCCNC(=O)c1cccc(-c2cccc3cc(Cc4cccc(F)c4)sc23)c1
254 to 256	O=C(Nc1cc(O)c(Cl)cc1O)c1ccc(O)c(F)c1
136 to 137	CNC(=O)Cc1ccc2ccn(C3CCN(CCc4ccccc4F)CC3)c2c1
138	CC(C)C(C)CNC(=O)c1ccc2c(c1)N(C(C)CN1CCCC1)c1ccccc1S2 (centres undefined)
168 to 170	O=Cc1c(Cl)nc2ccccc2c1-c1ccc(F)cc1
148 to 150	COC(=O)C(O)=CC(=O)c1cn(Cc2ccccc2)cc(Cc2ccccc2)c1=O
94	CCOc1ccccc1OCC(O)CNC(C)=CC(=O)c1cccnc1 (single isomer, unassigned; (-))
108 to 110	CCOC(=O)/C=C/c1ccc(OCCOC)cc1Oc1cc(C(F)(F)F)ccc1[N+](=O)[O-]
78 to 80	OCc1ccc(OCc2cccc(Cl)c2)cn1
234 to 236	O=C1CCC2(c3c[nH]cn3)Cc3ccccc3C12 (centres undefined)
150 to 152	O=c1nc(-c2ccccc2)c2cc([N+](=O)[O-])ccc2n1CC1CCCO1 (centres undefined)
30	CCOC(=O)C(Cc1cccc2ccccc12)C(=O)OCC
214 to 216	Cc1c(C(=O)O)ccc(Oc2cccnc2)c1S(C)(=O)=O
